US12186332B2, “Methods for overcoming WNT/beta-catenin anti-cancer resistance in leukemia stem cells” (STOWERS INSTITUTE FOR MEDICAL RESEARCH, priority 2019, dated 2025)

Test system: LSCs and HSPCs transcriptome
Test: RNA-seq of populations sorted from treated leukemic mice
Type: in vivo, mouse
Experimental: HSPCs, LSCs, and blast cells were sorted by FACS at […] post-treatment of leukemic mice; representative sorting gates are shown. Note distinct LSC population (compare to isotype) in vehicle versus low-dose DXR+chemotherapy treatment when LSCs show very low frequency. Other plots are from vehicle control. To obtain sufficient cells from the clinical DXR sample, the 5×4 […] DXR daily dosing schedule was used.
Data from two biological replicates of each, differing by <0.3 standard deviations, are shown.
Cohorts of leukemic mice were treated with vehicle, chemotherapy, [Low]DXR, clinical-dose DXR or chemotherapy+[Low]DXR as in FIG. 8. At 10 days post-treatment (day 1=start of treatment), blast cells, LSCs, and HSPCs were sorted using stringent gates (see FIG. 4A) for these populations. For each population, two biological replicates were made with 1-3 technical replicates each. Each biological replicate was a pool of sorted cells from 4-5 male and 4-5 female mice. Technical replicates were samples of sorted cells from each biological replicate. 1,000 cells per sample were sorted into 96-well plates with 7 μl lysis buffer containing RNase inhibitor (2 U/μl) from BM. First-strand cDNA synthesis and cDNA libraries were constructed using the SMARTer ultra low input RNA kit for sequencing—v3 (Clontech) following the manufacturer's instructions. cDNA quality was determined by Agilent high sensitivity DNA kit on Agilent 2100 BioAnalyzer (Agilent Technologies). Libraries were sequenced at 50 bp on the Illumina HiSeq 2500. Reads were aligned to UCSC mm10 with Tophat 2.1.1 (Kim et al. 2013), using gene models from Ensembl 80. Read counts per gene were obtained with HTSeq-count 0.6.0 (Anders et al. 2015). Analysis was done in R with the EdgeR package (Robinson et al. 2010) using default methods. […] Data can be accessed at https://www.ncbi.nlm.nih.qov/geo/query/acc.cqi?acc=GSE105049.

SMILES: COc1cccc2c1C(=O)c1c(O)c3c(c(O)c1C2=O)C[C@@](O)(C(=O)CO)C[C@@H]3O[C@H]1C[C@H](N)[C@H](O)[C@H](C)O1 [DXR, doxorubicin]
- Hallmark MYC targets in LSCs ([Low]DXR): reduced
- most highly enriched terms in LSCs compared to control or chemotherapy ([Low]DXR): upregulation of immune-related terms
- expression of resistance pathways, LSCs versus HSPCs (clinical DXR): increased expression of oncogenic signaling and other resistance pathways
